Results published in ChEMBL document CHEMBL1201862, “PubChem BioAssay data set” (2004).
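Cells were grown in 96-well plates and exposed to each compound for 48 hours at five concentrations; endpoints were interpolated linearly between bracketing concentrations, or set to the highest concentration if not reached. The concentration for 50% growth inhibition is given as GI50.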 Activity calls are given as the source filed them. Rule as the data show it: active = GI50 up to about 1.1 µM and inactive = higher.

Legend:
Assay in all cases: growth of human tumour cells (NCI), 48 h
SF-539 = tested on: SF-539
ACHN = tested on: ACHN
A549 = tested on: A549
A498 = tested on: A498
SK-OV-3 = tested on: SK-OV-3
SW-620 = tested on: SW-620
786-0 = tested on: 786-0
SN12C = tested on: SN12C
HOP-62 = tested on: HOP-62
U-251 = tested on: U-251
COLO 205 = tested on: COLO 205
SK-MEL-28 = tested on: SK-MEL-28
SK-MEL-5 = tested on: SK-MEL-5
IGROV-1 = tested on: IGROV-1
K562 = tested on: K562
CCRF-CEM = tested on: CCRF-CEM
TK-10 = tested on: TK-10
HL-60 = tested on: HL-60
NCI-H226 = tested on: NCI-H226

Measured: GI50

O=S(O)CCCSSc1ccccc1
inactive: SF-539 25.3 µM | ACHN 48 µM | A549 25.5 µM | A498 51.9 µM | SK-OV-3 99.3 µM | SW-620 47.3 µM | 786-0 66.8 µM | SN12C 25.6 µM | HOP-62 57.7 µM | U-251 26.4 µM | COLO 205 43.4 µM | SK-MEL-28 54.6 µM | SK-MEL-5 22.5 µM | IGROV-1 14.7 µM | K562 38.1 µM | CCRF-CEM 7.67 µM | TK-10 40.1 µM

CS/C(=N/C#N)NCCc1c[nH]c2ccccc12
inactive: SF-539 > 100 µM | HL-60 55.2 µM | ACHN 25.1 µM | A549 > 100 µM | SK-OV-3 > 100 µM | SW-620 > 100 µM | 786-0 45.6 µM | SN12C > 100 µM | HOP-62 > 100 µM | U-251 > 100 µM | COLO 205 > 100 µM | SK-MEL-28 > 100 µM | SK-MEL-5 76 µM | NCI-H226 > 100 µM | IGROV-1 > 100 µM | K562 67 µM | CCRF-CEM 48.2 µM | TK-10 > 100 µM

Cc1nc(Nc2ccccc2)sc1C(=O)NNc1ccc([N+](=O)[O-])cc1[N+](=O)[O-]
inactive: SF-539 32.7 µM | HL-60 13.9 µM | ACHN 14.2 µM | A549 93.5 µM | SK-OV-3 40.6 µM | SW-620 39.9 µM | 786-0 27.9 µM | SN12C 49 µM | HOP-62 41.9 µM | U-251 38.6 µM | COLO 205 30.3 µM | SK-MEL-28 > 100 µM | SK-MEL-5 25.5 µM | NCI-H226 85.5 µM | IGROV-1 45.9 µM | K562 12 µM | CCRF-CEM 14.2 µM | TK-10 52.5 µM

CC(=O)Nc1cc2c(s1)CCC1CC(=O)NN=C21 (configuration not stated)
inactive: SF-539 > 100 µM | HL-60 > 100 µM | ACHN > 100 µM | A549 > 100 µM | SW-620 > 100 µM | 786-0 > 100 µM | SN12C > 100 µM | HOP-62 > 100 µM | U-251 > 100 µM | COLO 205 > 100 µM | SK-MEL-28 > 100 µM | SK-MEL-5 > 100 µM | NCI-H226 > 100 µM | IGROV-1 > 100 µM | K562 > 100 µM | CCRF-CEM > 100 µM | TK-10 > 100 µM

O=C(NC(=O)c1cn(CCN(CCO)C(=O)NCCCCCCNC(=O)N(CCO)CCn2cc(C(=O)NC(=O)OCc3ccccc3)c(=O)[nH]c2=O)c(=O)[nH]c1=O)OCc1ccccc1
inactive: SF-539 > 100 µM | HL-60 > 100 µM | ACHN > 100 µM | A549 > 100 µM | SK-OV-3 > 100 µM | SW-620 > 100 µM | 786-0 > 100 µM | SN12C > 100 µM | HOP-62 > 100 µM | U-251 > 100 µM | COLO 205 > 100 µM | SK-MEL-28 > 100 µM | SK-MEL-5 > 100 µM | IGROV-1 > 100 µM | K562 > 100 µM | CCRF-CEM > 100 µM | TK-10 > 100 µM

CC(=O)C1C(c2ccc(N(C)C)cc2)c2cc3c(cc2OC1(C)O)OCO3 (configuration not stated)
inactive: HL-60 24.3 µM | ACHN 41.2 µM | A549 37.6 µM | SK-OV-3 55.3 µM | SW-620 40.2 µM | 786-0 36.7 µM | SN12C 40.1 µM | HOP-62 > 100 µM | U-251 52.7 µM | COLO 205 41.1 µM | SK-MEL-28 57.4 µM | SK-MEL-5 30.8 µM | IGROV-1 77.8 µM | K562 24 µM | CCRF-CEM 32.5 µM | TK-10 51.2 µM

O=C(N/C(=C\c1ccccc1O)c1nc2ccccc2[nH]1)c1ccccc1
inactive: SF-539 75.7 µM | ACHN 73.8 µM | A549 > 100 µM | A498 62.4 µM | SK-OV-3 36.1 µM | SW-620 > 100 µM | 786-0 48.1 µM | SN12C 89.7 µM | HOP-62 79.6 µM | U-251 > 100 µM | COLO 205 > 100 µM | SK-MEL-28 > 100 µM | SK-MEL-5 95.7 µM | IGROV-1 > 100 µM | K562 > 100 µM | CCRF-CEM > 100 µM | TK-10 41.5 µM

COc1cc(/C=C(\C#N)C(=O)c2ccccc2)ccc1OCc1ccccc1
inactive: SF-539 > 100 µM | HL-60 > 100 µM | ACHN > 100 µM | A549 > 100 µM | SK-OV-3 > 100 µM | SW-620 > 100 µM | 786-0 > 100 µM | SN12C > 100 µM | HOP-62 > 100 µM | COLO 205 > 100 µM | SK-MEL-28 > 100 µM | SK-MEL-5 > 100 µM | NCI-H226 > 100 µM | IGROV-1 > 100 µM | K562 > 100 µM | CCRF-CEM > 100 µM | TK-10 > 100 µM
